Common to all, as to type: physicochemical
Data set [1] can be described thus: Water loss as a function of temperature by TG/DTA (loss on drying, thermal transitions). The following applies: for Loss On Drying (LOD) (%): total water loss by thermogravimetry, rt-295° C., 10°/min; for LOD (thermal transitions): DTA signals, temperature at which the water is lost. From the text:
(ii) Thermogravimetric/Differential Thermal Analysis (TG/DTA) […]
The data listed below show the total water loss (LOD by thermogravimetry (TG)) and thermal transitions (DTA signals) show the temperature at which the water is lost.

Data set [2] in a line: Humidity microbalance analysis (VTI), moisture sorption at 25° C. To be noted: for hygroscopicity / moisture uptake in words: variations in humidity. From the text: Thus, Modification C retains a stable weight from 0% relative humidity to 80% relative humidity while Modification A loses water with decreasing humidity and gains moisture with increasing humidity. With Modification C, a re-hydration step and the possible variability in water content between batches may thus be eliminated.
Modification N is particularly suitable for industrial scale-up. It is a crystalline anhydrous form.
Modification O is particularly suitable for industrial scale-up. It is a crystalline anhydrous form.

The nature of data set [3]: Physical stability of the crystalline forms (relative humidity, absorption-desorption isotherm FIG. 1, temperature, storage). To be noted: absorption-desorption isotherm, FIG. 1.

For `O=C([O-])C[C@H]1CC[C@H](c2ccc(-c3ccc(Nc4ccc(C(F)(F)F)nc4)cn3)cc2)CC1.[Na+]` [Modification G, sodium salt of (4-{4-[5-(6-trifluoromethyl-pyridin-3-ylamino)-pyridin-2-yl]-phenyl}-cyclohexyl)-acetic acid], the “Loss On Drying (LOD) (%)” value in data set [1] (listed as G) was found to be 11.7%.

In the case of `O=C([O-])C[C@H]1CC[C@H](c2ccc(-c3ccc(Nc4ccc(C(F)(F)F)nc4)cn3)cc2)CC1.[Na+]` [Modification H, sodium salt of (4-{4-[5-(6-trifluoromethyl-pyridin-3-ylamino)-pyridin-2-yl]-phenyl}-cyclohexyl)-acetic acid], in data set [1] (listed as H), the “LOD (thermal transitions)” value was found to be 68.3 °C and the “Loss On Drying (LOD) (%)” value is reported as 3%.

Turning to `O=C([O-])C[C@H]1CC[C@H](c2ccc(-c3ccc(Nc4ccc(C(F)(F)F)nc4)cn3)cc2)CC1.[Na+]` [Modification O, sodium salt of (4-{4-[5-(6-trifluoromethyl-pyridin-3-ylamino)-pyridin-2-yl]-phenyl}-cyclohexyl)-acetic acid], the “relative humidity at which moisture gain starts / becomes significant” value in data set [2] was 80 % relative humidity. In addition, the “Mass uptake (% water absorbed)” value in data set [2] (0 % residual humidity) is listed as 0.0%; in data set [2] (10 % residual humidity), 0.0%; in data set [2] (50 % residual humidity) it was −0.5%; in data set [2] (60 % residual humidity) it was −0.5%; in data set [2] (70 % residual humidity), −0.5%; in data set [2] (79 % residual humidity) it was −0.4%. In addition, the entries for the “Mass uptake (% water absorbed)” value in data set [2] (90 % residual humidity) and in data set [2] (95 % residual humidity) were 4.3% and 13.3%, respectively. Besides, in data set [2], the “hygroscopicity / moisture uptake in words” value is “low hygroscopicity”. For the same molecule, the “LOD (thermal transitions)” value in data set [1] is reported as “None”. In addition, the “Loss On Drying (LOD) (%)” value in data set [1] is given as 1.2%.

Regarding `O=C([O-])C[C@H]1CC[C@H](c2ccc(-c3ccc(Nc4ccc(C(F)(F)F)nc4)cn3)cc2)CC1.[Na+]` [Modification E, sodium salt of (4-{4-[5-(6-trifluoromethyl-pyridin-3-ylamino)-pyridin-2-yl]-phenyl}-cyclohexyl)-acetic acid], the “Loss On Drying (LOD) (%)” value in data set [1] (listed as E) worked out at 9.5%.

On to `O=C([O-])C[C@H]1CC[C@H](c2ccc(-c3ccc(Nc4ccc(C(F)(F)F)nc4)cn3)cc2)CC1.[Na+]` [Modification F, sodium salt of (4-{4-[5-(6-trifluoromethyl-pyridin-3-ylamino)-pyridin-2-yl]-phenyl}-cyclohexyl)-acetic acid], for which, in data set [1] (listed as F), the “LOD (thermal transitions)” value was 90 °C and the “Loss On Drying (LOD) (%)” value is 3.5%.

Turning to `O=C([O-])C[C@H]1CC[C@H](c2ccc(-c3ccc(Nc4ccc(C(F)(F)F)nc4)cn3)cc2)CC1.[Na+]` [Modification B, sodium salt of (4-{4-[5-(6-trifluoromethyl-pyridin-3-ylamino)-pyridin-2-yl]-phenyl}-cyclohexyl)-acetic acid], the “Loss On Drying (LOD) (%)” value in data set [1] (listed as B) turned out to be 6.9%.

Turning to `O=C([O-])C[C@H]1CC[C@H](c2ccc(-c3ccc(Nc4ccc(C(F)(F)F)nc4)cn3)cc2)CC1.[Na+]` [Modification J, sodium salt of (4-{4-[5-(6-trifluoromethyl-pyridin-3-ylamino)-pyridin-2-yl]-phenyl}-cyclohexyl)-acetic acid], the “Loss On Drying (LOD) (%)” value in data set [1] (listed as J) is given as 3.1%.

On to `O=C([O-])C[C@H]1CC[C@H](c2ccc(-c3ccc(Nc4ccc(C(F)(F)F)nc4)cn3)cc2)CC1.[Na+]` [Modification P, sodium salt of (4-{4-[5-(6-trifluoromethyl-pyridin-3-ylamino)-pyridin-2-yl]-phenyl}-cyclohexyl)-acetic acid], for which, in data set [1] (listed as P), the “LOD (thermal transitions)” value is 65 °C and the “Loss On Drying (LOD) (%)” value was 10.9%.

For the molecule `O=C([O-])C[C@H]1CC[C@H](c2ccc(-c3ccc(Nc4ccc(C(F)(F)F)nc4)cn3)cc2)CC1.[Na+]` [Modification L, sodium salt of (4-{4-[5-(6-trifluoromethyl-pyridin-3-ylamino)-pyridin-2-yl]-phenyl}-cyclohexyl)-acetic acid], in data set [1] (listed as L), the “LOD (thermal transitions)” value was found to be 65 °C and the “Loss On Drying (LOD) (%)” value is on record as 14.9%.

For `O=C([O-])C[C@H]1CC[C@H](c2ccc(-c3ccc(Nc4ccc(C(F)(F)F)nc4)cn3)cc2)CC1.[Na+]` [Modification M, sodium salt of (4-{4-[5-(6-trifluoromethyl-pyridin-3-ylamino)-pyridin-2-yl]-phenyl}-cyclohexyl)-acetic acid], in data set [1] (listed as M), the “LOD (thermal transitions)” value is listed as “None” and the “Loss On Drying (LOD) (%)” value came out at 0%. Besides, in data set [3], the “relative humidity range in which the form is stable” value is “below 10 % relative humidity”.

As to `O=C([O-])C[C@H]1CC[C@H](c2ccc(-c3ccc(Nc4ccc(C(F)(F)F)nc4)cn3)cc2)CC1.[Na+]` [Modification N, sodium salt of (4-{4-[5-(6-trifluoromethyl-pyridin-3-ylamino)-pyridin-2-yl]-phenyl}-cyclohexyl)-acetic acid], the “relative humidity at which moisture gain starts / becomes significant” value in data set [2] is on record as 70 % relative humidity. Besides, the “Mass uptake (% water absorbed)” value in data set [2] (0 % residual humidity) came out at 0.0%; in data set [2] (10 % residual humidity) it was 0.1%; in data set [2] (50 % residual humidity), 0.7%; in data set [2] (60 % residual humidity) it was 0.9%; in data set [2] (70 % residual humidity), 1.0%; in data set [2] (79 % residual humidity), 3.7%. Moreover, the “Mass uptake (% water absorbed)” value stood at 18.2% in data set [2] (90 % residual humidity) and 19.1% in data set [2] (95 % residual humidity). Moreover, in data set [2], the “hygroscopicity / moisture uptake in words” value is reported as “low hygroscopicity”. The “LOD (thermal transitions)” value in data set [1] is given as “None”. Further, in data set [1], the “Loss On Drying (LOD) (%)” value was 0.3%.

Regarding `O=C([O-])C[C@H]1CC[C@H](c2ccc(-c3ccc(Nc4ccc(C(F)(F)F)nc4)cn3)cc2)CC1.[Na+]` [Modification D, sodium salt of (4-{4-[5-(6-trifluoromethyl-pyridin-3-ylamino)-pyridin-2-yl]-phenyl}-cyclohexyl)-acetic acid], in data set [1] (listed as D), the “LOD (thermal transitions)” value turned out to be 84.5 °C and the “Loss On Drying (LOD) (%)” value turned out to be 12.4%.

For the molecule `O=C([O-])C[C@H]1CC[C@H](c2ccc(-c3ccc(Nc4ccc(C(F)(F)F)nc4)cn3)cc2)CC1.[Na+]` [Modification I, sodium salt of (4-{4-[5-(6-trifluoromethyl-pyridin-3-ylamino)-pyridin-2-yl]-phenyl}-cyclohexyl)-acetic acid], in data set [1] (listed as I), the “Loss On Drying (LOD) (%)” value is given as 9.5%.

The values are drawn from patent publication US8829194B2, “Crystalline forms of the sodium salt of (4-{4-[5-(6-trifluoromethyl-pyridin-3-ylamino)-pyridin-2-yl]-phenyl}-cyclohexyl)-acetic acid” (Novartis AG, priority 2010, dated 2014).
